Measurements taken from patent US10457710B2, “Antimicrobial peptides, their variants and uses” (priority 2015, dated 2019).
Where a SMILES comes first, the peptide text is derived from it. [ ]: non-standard residue; d: D form.

Assays:
Format in all cases: cell-based
Candida albicans = test: MIC, clinical yeast strains
How it was run: (§1)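 Visual growth inhibition defined the MIC in a microdilution assay where fungal strains were cultured in potato dextrose broth instead of MH broth. Cell density was set to 5.0×10^5 cfu/ml, and incubation lasted 20–24 h at 37° C across a 0.125–128 μg/ml series.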

C. parapsilosis = test: MIC, clinical yeast strains
How it was run: as §1

C. glabrata = test: MIC, clinical yeast strains
How it was run: as §1

[1] = tested on: clinical strains of S. aureus; test: MIC, microdilution, clinical strains; conditions: 0.02% BSA, 0.2% acetic acid
How it was run: (§2)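 Broth microdilution with inocula adjusted to 5.0×10^5 cfu/ml; peptides tested at 0.125 to 128 μg/ml and incubated at 37° C for 20 to 24 hours. Bacteria were grown in Mueller Hinton broth, yeasts in potato dextrose broth. MIC was the lowest concentration showing no visible growth.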

[2] = tested on: clinical strains of P. aeruginosa; test: MIC, microdilution, clinical strains; conditions: 0.02% BSA, 0.2% acetic acid
How it was run: as §2

[3] = tested on: clinical strains of Proteus mirabilis; test: MIC, microdilution, clinical strains; conditions: 0.02% BSA, 0.2% acetic acid
How it was run: as §2

[4] = tested on: clinical strains of S. pneumoniae; test: MIC, microdilution, clinical strains; conditions: 0.02% BSA, 0.2% acetic acid
How it was run: as §2

[5] = tested on: clinical strains of E. coli; test: MIC, microdilution, clinical strains; conditions: microdilution, Muller Hinton broth-cation adjusted, 0.02% BSA, 0.2% acetic acid
How it was run: as §2

[6] = tested on: clinical strains of Serratia marcescens; test: MIC, microdilution, clinical strains; conditions: 0.02% BSA, 0.2% acetic acid
How it was run: as §2

[7] = tested on: clinical strains of E. cloacae; test: MIC, microdilution, clinical strains; conditions: 0.02% BSA, 0.2% acetic acid
How it was run: as §2

[8] = tested on: clinical strains of K. pneumoniae; test: MIC, microdilution, clinical strains; conditions: 0.02% BSA, 0.2% acetic acid
How it was run: as §2

C. quillermondiae = test: MIC, clinical yeast strains; parameters: Minimum inhibitory concentration: unit: μg/ml
How it was run: as §1

[9] = clinical yeast strain 1, D-form peptide, concentrations tested 0.125 to 128 μg/ml
[10] = clinical yeast strain 2, D-form peptide, concentrations tested 0.125 to 128 μg/ml
[11] = clinical yeast strain 3, D-form peptide, concentrations tested 0.125 to 128 μg/ml
[12] = clinical yeast strain 4, D-form peptide, concentrations tested 0.125 to 128 μg/ml
[13] = Staphylococcus aureus strain 1, Muller Hinton broth-cation adjusted
[14] = Staphylococcus aureus strain 2, Muller Hinton broth-cation adjusted
[15] = Staphylococcus aureus strain 3, Muller Hinton broth-cation adjusted
[16] = Staphylococcus aureus strain 4, Muller Hinton broth-cation adjusted
[17] = Staphylococcus aureus strain 5, Muller Hinton broth-cation adjusted
[18] = Pseudomonas aeruginosa strain 1, Muller Hinton broth-cation adjusted
[19] = Pseudomonas aeruginosa strain 2, Muller Hinton broth-cation adjusted
[20] = Pseudomonas aeruginosa strain 3, Muller Hinton broth-cation adjusted
[21] = Pseudomonas aeruginosa strain 4, Muller Hinton broth-cation adjusted
[22] = Pseudomonas aeruginosa strain 5, Muller Hinton broth-cation adjusted
[23] = Proteus mirabilis strain 1, Muller Hinton broth-cation adjusted
[24] = Proteus mirabilis strain 2, Muller Hinton broth-cation adjusted
[25] = Proteus mirabilis strain 3, Muller Hinton broth-cation adjusted
[26] = Proteus mirabilis strain 4, Muller Hinton broth-cation adjusted
[27] = Proteus mirabilis strain 5, Muller Hinton broth-cation adjusted
[28] = Streptococcus pneumoniae strain 1, Muller Hinton broth-cation adjusted
[29] = Streptococcus pneumoniae strain 2, Muller Hinton broth-cation adjusted
[30] = Streptococcus pneumoniae strain 3, Muller Hinton broth-cation adjusted
[31] = Streptococcus pneumoniae strain 4, Muller Hinton broth-cation adjusted
[32] = Streptococcus pneumoniae strain 5, Muller Hinton broth-cation adjusted
[33] = Serratia marcescens strain 1, Muller Hinton broth-cation adjusted
[34] = Serratia marcescens strain 2, Muller Hinton broth-cation adjusted
[35] = Serratia marcescens strain 3, Muller Hinton broth-cation adjusted
[36] = Serratia marcescens strain 4, Muller Hinton broth-cation adjusted
[37] = Serratia marcescens strain 5, Muller Hinton broth-cation adjusted
[38] = Enterobacter cloacae strain 1, Muller Hinton broth-cation adjusted
[39] = Enterobacter cloacae strain 2, Muller Hinton broth-cation adjusted
[40] = Enterobacter cloacae strain 3, Muller Hinton broth-cation adjusted
[41] = Enterobacter cloacae strain 4, Muller Hinton broth-cation adjusted
[42] = Enterobacter cloacae strain 5, Muller Hinton broth-cation adjusted
[43] = Klebsiella pneumoniae strain 1, Muller Hinton broth-cation adjusted
[44] = Klebsiella pneumoniae strain 2, Muller Hinton broth-cation adjusted
[45] = Klebsiella pneumoniae strain 3, Muller Hinton broth-cation adjusted
[46] = Klebsiella pneumoniae strain 4, Muller Hinton broth-cation adjusted
[47] = Klebsiella pneumoniae strain 5, Muller Hinton broth-cation adjusted

What does the source list for CC(C)C[C@@H](NC(=O)[C@@H](CCCCN)NC(=O)[C@@H](Cc1c[nH]c2ccccc12)NC(=O)[C@@H](CCCCN)NC(=O)[C@@H](C)NC(=O)[C@@H](Cc1c[nH]cn1)NC(=O)[C@@H](CC(C)C)NC(=O)[C@@H](CCCNC(=N)N)NC(=O)[C@@H](Cc1c[nH]c2ccccc12)NC(=O)[C@H](N)Cc1c[nH]c2ccccc12)C(=O)N[C@H](Cc1c[nH]c2ccccc12)C(=O)O [Chain109D] (H-[dW][dW][dR][dL][dH][dA][dK][dW][dK][dL][dW]-OH)?
Minimum inhibitory concentration, Candida albicans strain 1 (Candida albicans; [9]): 128; Minimum inhibitory concentration, Candida albicans strain 2 (Candida albicans; [10]): 128; Minimum inhibitory concentration, Candida albicans strain 3 (Candida albicans; [11]): 128; Minimum inhibitory concentration, Candida albicans strain 4 (Candida albicans; [12]): 128; Minimum inhibitory concentration, Candida albicans strain 5 (Candida albicans; clinical yeast strain 5, D-form peptide, concentrations tested 0.125 to 128 μg/ml): 128; Minimum inhibitory concentration, C. parapsilosis strain 1 (C. parapsilosis; [9]): 128; Minimum inhibitory concentration, C. parapsilosis strain 2 (C. parapsilosis; [10]): 128; Minimum inhibitory concentration, C. parapsilosis strain 3 (C. parapsilosis; [11]): 128; Minimum inhibitory concentration, C. parapsilosis strain 4 (C. parapsilosis; [12]): 8; Minimum inhibitory concentration, C. glabrata strain 1 (C. glabrata; [9]): 128; Minimum inhibitory concentration, C. glabrata strain 2 (C. glabrata; [10]): 128; Minimum inhibitory concentration, C. glabrata strain 3 (C. glabrata; [11]): 16; Minimum inhibitory concentration, C. glabrata strain 4 (C. glabrata; [12]): 64; Minimum inhibitory concentration [1, 13]: 2; Minimum inhibitory concentration [1, 14]: 4; Minimum inhibitory concentration [1, 15]: 2; Minimum inhibitory concentration [1, 16]: 2; Minimum inhibitory concentration [1, 17]: 2; Minimum inhibitory concentration [2, 18]: 16; Minimum inhibitory concentration [2, 19]: 16; Minimum inhibitory concentration [2, 20]: 16; Minimum inhibitory concentration [2, 21]: 16; Minimum inhibitory concentration [2, 22]: 8; Minimum inhibitory concentration [3, 23]: >128; Minimum inhibitory concentration [3, 24]: 64; Minimum inhibitory concentration [3, 25]: 64; Minimum inhibitory concentration [3, 26]: >128; Minimum inhibitory concentration [3, 27]: >128; Minimum inhibitory concentration [4, 28]: 16; Minimum inhibitory concentration [4, 29]: 8; Minimum inhibitory concentration [4, 30]: 2; Minimum inhibitory concentration [4, 31]: 8; Minimum inhibitory concentration [4, 32]: 8; Minimum inhibitory concentration ([5]; Escherichia coli strain 1): 16; Minimum inhibitory concentration ([5]; Escherichia coli strain 2): 4; Minimum inhibitory concentration ([5]; Escherichia coli strain 3): 4; Minimum inhibitory concentration ([5]; Escherichia coli strain 4): 4; Minimum inhibitory concentration ([5]; Escherichia coli strain 5): 4; Minimum inhibitory concentration [6, 33]: >128; Minimum inhibitory concentration [6, 34]: >128; Minimum inhibitory concentration [6, 35]: >128; Minimum inhibitory concentration [6, 36]: >128; Minimum inhibitory concentration [6, 37]: 64; Minimum inhibitory concentration [7, 38]: 4; Minimum inhibitory concentration [7, 39]: 8; Minimum inhibitory concentration [7, 40]: 8; Minimum inhibitory concentration [7, 41]: 8; Minimum inhibitory concentration [7, 42]: 4; Minimum inhibitory concentration [8, 43]: 16; Minimum inhibitory concentration [8, 44]: 8; Minimum inhibitory concentration [8, 45]: 8; Minimum inhibitory concentration [8, 46]: 16; Minimum inhibitory concentration [8, 47]: 8; Minimum inhibitory concentration, C. quillermondiae strain 1 (C. quillermondiae; [9]): 128

How did the Minimum inhibitory concentration (Candida albicans; Candida albicans clinical yeast strain 1) turn out when CC(C)C[C@@H](NC(=O)[C@@H](CCCCN)NC(=O)[C@@H](CCCCN)NC(=O)[C@@H](Cc1ccccc1)NC(=O)[C@@H](CC(C)C)NC(=O)[C@@H](Cc1c[nH]c2ccccc12)NC(=O)[C@@H](CCCNC(=N)N)NC(=O)[C@@H](Cc1c[nH]c2ccccc12)NC(=O)[C@@H](CCCCN)NC(=O)[C@@H](CCCNC(=N)N)NC(=O)[C@H](N)CCCCN)C(=O)O [Chain310D] (H-[dK][dR][dK][dW][dR][dW][dL][dF][dK][dK][dL]-OH) was run?
The Minimum inhibitory concentration was 16.

And the Minimum inhibitory concentration (Candida albicans; Candida albicans clinical yeast strain 2)?
Its Minimum inhibitory concentration is 16.

And the Minimum inhibitory concentration (Candida albicans; Candida albicans clinical yeast strain 3)?
Its Minimum inhibitory concentration is 16.

What about the Minimum inhibitory concentration (Candida albicans; Candida albicans clinical yeast strain 4) of the same compound?
Its Minimum inhibitory concentration is 16.

And the Minimum inhibitory concentration (Candida albicans; Candida albicans clinical yeast strain 5)?
Its Minimum inhibitory concentration is 16.

What about the Minimum inhibitory concentration (C. parapsilosis; C. parapsilosis clinical yeast strain 1) of the same compound?
The Minimum inhibitory concentration was 64.

What about the Minimum inhibitory concentration (C. parapsilosis; C. parapsilosis clinical yeast strain 2) of the same compound?
Its Minimum inhibitory concentration is 64.

And the Minimum inhibitory concentration (C. parapsilosis; C. parapsilosis clinical yeast strain 3)?
The Minimum inhibitory concentration was 64.

What about the Minimum inhibitory concentration (C. parapsilosis; C. parapsilosis clinical yeast strain 4) of the same compound?
Its Minimum inhibitory concentration is 16.

What about the Minimum inhibitory concentration (C. glabrata; C. glabrata clinical yeast strain 1) of the same compound?
Its Minimum inhibitory concentration is 16.

What about the Minimum inhibitory concentration (C. glabrata; C. glabrata clinical yeast strain 2) of the same compound?
Its Minimum inhibitory concentration is 16.

What about the Minimum inhibitory concentration (C. glabrata; C. glabrata clinical yeast strain 3) of the same compound?
The Minimum inhibitory concentration was 128.

And the Minimum inhibitory concentration (C. glabrata; C. glabrata clinical yeast strain 4)?
Its Minimum inhibitory concentration is 128.

What about the Minimum inhibitory concentration [1, 13] of the same compound?
The Minimum inhibitory concentration was 8.

And the Minimum inhibitory concentration [1, 14]?
Its Minimum inhibitory concentration is 16.

What about the Minimum inhibitory concentration [1, 15] of the same compound?
Its Minimum inhibitory concentration is 8.

And the Minimum inhibitory concentration [1, 16]?
Its Minimum inhibitory concentration is 8.

What about the Minimum inhibitory concentration [1, 17] of the same compound?
Its Minimum inhibitory concentration is 4.

And the Minimum inhibitory concentration [2, 18]?
Its Minimum inhibitory concentration is 8.

What about the Minimum inhibitory concentration [2, 19] of the same compound?
The Minimum inhibitory concentration was 16.

And the Minimum inhibitory concentration [2, 20]?
Its Minimum inhibitory concentration is 16.

And the Minimum inhibitory concentration [2, 21]?
The Minimum inhibitory concentration was 8.

What about the Minimum inhibitory concentration [2, 22] of the same compound?
The Minimum inhibitory concentration was 4.

And the Minimum inhibitory concentration [3, 23]?
Its Minimum inhibitory concentration is >128.

And the Minimum inhibitory concentration [3, 24]?
The Minimum inhibitory concentration was >128.

What about the Minimum inhibitory concentration [3, 25] of the same compound?
The Minimum inhibitory concentration was >128.

And the Minimum inhibitory concentration [3, 26]?
The Minimum inhibitory concentration was >128.

And the Minimum inhibitory concentration [3, 27]?
Its Minimum inhibitory concentration is >128.

And the Minimum inhibitory concentration [4, 28]?
The Minimum inhibitory concentration was 128.

What about the Minimum inhibitory concentration [4, 29] of the same compound?
The Minimum inhibitory concentration was 128.

And the Minimum inhibitory concentration [4, 30]?
Its Minimum inhibitory concentration is 128.

What about the Minimum inhibitory concentration [4, 31] of the same compound?
The Minimum inhibitory concentration was 128.

What about the Minimum inhibitory concentration [4, 32] of the same compound?
Its Minimum inhibitory concentration is 64.

And the Minimum inhibitory concentration ([5]; Escherichia coli strain 1)?
The Minimum inhibitory concentration was 4.

What about the Minimum inhibitory concentration ([5]; Escherichia coli strain 2) of the same compound?
Its Minimum inhibitory concentration is 32.

What about the Minimum inhibitory concentration ([5]; Escherichia coli strain 3) of the same compound?
Its Minimum inhibitory concentration is 16.

What about the Minimum inhibitory concentration ([5]; Escherichia coli strain 4) of the same compound?
The Minimum inhibitory concentration was 16.

And the Minimum inhibitory concentration ([5]; Escherichia coli strain 5)?
The Minimum inhibitory concentration was 16.

And the Minimum inhibitory concentration [6, 33]?
The Minimum inhibitory concentration was >128.

What about the Minimum inhibitory concentration [6, 34] of the same compound?
The Minimum inhibitory concentration was >128.

What about the Minimum inhibitory concentration [6, 35] of the same compound?
Its Minimum inhibitory concentration is >128.

What about the Minimum inhibitory concentration [6, 36] of the same compound?
The Minimum inhibitory concentration was >128.

And the Minimum inhibitory concentration [6, 37]?
The Minimum inhibitory concentration was >128.

What about the Minimum inhibitory concentration [7, 38] of the same compound?
The Minimum inhibitory concentration was 128.

What about the Minimum inhibitory concentration [7, 39] of the same compound?
Its Minimum inhibitory concentration is 64.

And the Minimum inhibitory concentration [7, 40]?
The Minimum inhibitory concentration was 16.

And the Minimum inhibitory concentration [7, 41]?
The Minimum inhibitory concentration was 8.

And the Minimum inhibitory concentration [7, 42]?
Its Minimum inhibitory concentration is 16.

And the Minimum inhibitory concentration [8, 43]?
Its Minimum inhibitory concentration is 64.

And the Minimum inhibitory concentration [8, 44]?
Its Minimum inhibitory concentration is 64.

And the Minimum inhibitory concentration [8, 45]?
Its Minimum inhibitory concentration is 128.

And the Minimum inhibitory concentration [8, 46]?
Its Minimum inhibitory concentration is 64.

And the Minimum inhibitory concentration [8, 47]?
Its Minimum inhibitory concentration is 32.

And the Minimum inhibitory concentration (C. quillermondiae; C. quillermondiae clinical yeast strain 1)?
The Minimum inhibitory concentration was 8.
